We go through three compounds from patent US6699861B1, “Anti-quinazoline compounds” (Cancer Research Technology Limited, priority 1999, dated 2004).

Series [1] deals with W1L2 cells. Kind of series: Growth inhibition of W1L2 in presence of folate metabolites (dThd/HX). The class given is cell-based, human. The settings on record: Homo sapiens; in the presence of 10 μM thymidine (dThd) and 50 μM hypoxantine (HX); read-out: Inhibition of Cell Growth IC50, W1L2 + dThd/HX (C). The method, then: Growth inhibition assays as described above were performed in W1L2 cells where compounds were incubated in the presence of 10 μM thymidine (dThd) and 50 μM hypoxantine (HX) (purchased from Sigma Chemical Co.).

For series [2] the following is noted: background statement on the known compound; cited from earlier work.
Series [3] concerns W1L2:C1 cells. The series is described as follows: Growth inhibition of W1L2:C1 cells (elevated TS). It counts as cell-based, human. The settings on record: read-out: Inhibition of Cell Growth IC50, W1L2:C1 (B). On the procedure:
(§1) W1L2 human lymphoblastoid, W1L2:C1 (elevated TS; O'Connor et al, Cancer Res, 52, 1137-1143 (1992)) and L1210 mouse leukaemia cells were cultured in suspension and A2780, PXN94, 41M, HX62, SKOV3 (human ovarian carcinoma), MCF-7 (human breast carcinoma), HT29 and SW480 (human colon carcinoma) cell lines were grown as monolayers as described in Jackman et al, Cancer Res, 50, 5212-5218 (1990) and Jackman et al, Br. J. Cancer, 71, 914-924 (1995).
(§2) Growth inhibition studies with suspension cells were performed as described in Jackman et al, Cancer Res, 50, 5212-5218 (1990). Activity against the adherent cell lines was assessed by MTT assay (Twentyman et al, Br. J. Cancer, 56, 279-285 (1987)) where cells were seeded in 96-well plates at 1000-3000 cells per well, incubated overnight and then exposed to the appropriate drug concentrations for 96-120 h.

For series [4], the system named is W1L2 human lymphoblastoid cells. The series is described as follows: Growth inhibition of W1L2 cells. It counts as cell-based.
In series [5] the test system is W1L2:R865 cell line. The series is described as follows: Growth inhibition of W1L2:R865 cells (acquired resistance to CB 30865). It counts as cell-based, human. On the procedure: A cell line was raised with acquired resistance to CB 30865, denoted W1L2:R865, by stepwise selection over ˜9 months.
The generated W1L2:R865 cell line was routinely cultured in 0.03 μm CB 30865 under the same conditions as W1L2 cells, with cells being grown in the absence of CB 30865 for ˜2 weeks before an experiment.
The activity of compounds against W1L2:R865 cells was determined within parallel experiments by 72 h growth inhibition assay (Coulter counts). CB 30865 was included in every experiment as an internal control.

The target of series [6] is mouse thymidylate synthase (TS) (Mus musculus, UniProt P07607). Kind of series: Inhibition of L1210 thymidylate synthase (TS).
Chain of mouse thymidylate synthase (TS) (P07607 whole entry): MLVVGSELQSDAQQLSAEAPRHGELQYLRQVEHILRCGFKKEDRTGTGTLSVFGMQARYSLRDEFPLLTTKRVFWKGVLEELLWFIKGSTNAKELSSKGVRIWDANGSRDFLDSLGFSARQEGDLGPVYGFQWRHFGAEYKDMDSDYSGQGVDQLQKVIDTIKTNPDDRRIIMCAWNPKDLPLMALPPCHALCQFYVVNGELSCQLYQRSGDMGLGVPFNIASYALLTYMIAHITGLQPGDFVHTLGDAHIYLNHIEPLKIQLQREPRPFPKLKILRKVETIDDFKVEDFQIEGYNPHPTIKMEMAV
Series [7] has as its system HT29 cells. The series is described as follows: In vitro sensitivity of HT29 cells compared with CH1 cells. It counts as cell-based, human. On the procedure:
as §1, §2

Series [8] in a line: MTD in DBA2 mice. As to conditions: mouse, in vivo. On the procedure: MTD in DBA2 mice ˜1.5 mg/kg/d×3 days.
Series [9] in a line: Tolerability (weight loss, deaths, MTD) in nude mice.
Method: One day later (day 1), CB 300919 was administered by ip injection, daily for 3 days (days 1-3).
Mice injected with CB 300919 i.p. on days 1-3.
Series [10] concerns HT29 colon line. Kind of series: Hollow fibre assay, HT29 cells. The class given is in vivo, nude mice. The settings on record: for O.D. as % control: harvested day 5. On the procedure: (§3) As adopted by the NCI, the hollow fibre assay (Hollingshead et al. 1995, Life Sciences, 57: 13 1-141) was used as an initial means of assessing the in vivo antitumour activity of CB 300919.
(§4) The hollow fibre assay was performed using the CH1 ovarian carcinoma cell line and the HT29 colon line.
(§5) Results are expressed as a % Treated/Control (T/C).

The subject of series [11] is CH1 ovarian carcinoma cell line. The series is described as follows: Hollow fibre assay, CH1 cells. The class given is in vivo, nude mice. The settings on record: for O.D. as % control: harvested day 5. On the procedure:
as §3, §4, §5

Where [12] appears, read: Homo sapiens, Lymphoblastoid cell, W1L2 suspension cells, read-out: Inhibition of Cell Growth IC50, W1L2 (B).
Setting [13] is: 0.25 mg/kg/d i.p. daily x 3 days.
Setting [14] is: 0.50 mg/kg/d i.p. daily x 3 days.
The mark [15] stands for this setting: 0.75 mg/kg/d i.p. daily x 3 days.

SMILES strings stand for the structures. Where “and” joins values, the source holds several entries; their conditions need not be identical. Equal values may be shown once. Read-outs that look alike come from different tables or passages of the source.

As usually defined, the melting point is the temperature, or range, at which the solid turns liquid.

On to `C#CCN(Cc1cc2c(=O)[nH]c(C)nc2cc1Br)c1ccc(C(=O)NCc2cccnc2)cc1` [CB30865, 4-[N-[7-bromo-2-methyl-4-oxo-3,4-dihydroquinazolin-6-ylmethyl]-N-(prop-2-ynyl)amino]-N-(3-pyridylmethyl)benzamide, reference compound], for which the IC50 in [1] worked out at 2.2 ± 0.82 nM; in series [3] (Homo sapiens), 2.3 ± 0.15 nM; in [4] (setting [12]), 2.8 ± 0.5 nM; in series [4] (Homo sapiens, Lymphoblastoid cell, W1L2 cells, 72 h, read-out: 72 h IC50), 2.8 nM; in [5] (Homo sapiens, 72 h growth inhibition assay (Coulter counts), read-out: Inhibition of Cell Growth IC50, W1L2:R865 (D)) it was 610 nM. The water-solubility entry in series [2] is recorded as “very low water-solubility”.

Regarding `C#CCN(Cc1cc2c(=O)n(C)c(CN3CCN(C)CC3)nc2cc1Cl)c1ccc(C(=O)NCc2cccnc2)cc1` [CB300919, 4-[N-[7-Chloro-3-methyl-2-(4-methyl-piperazin-1-yl)methyl-4-oxo-3,4-dihydroquinazolin-6-ylmethyl]-N-(prop-2-ynyl)amino]-N-(3-pyridylmethyl)benzamide], the “Inhibition of L1210 TS (A) IRP* (inverse relative potency)” value in series [6] is >2500. In addition, the IC50 in series [1] is 0.32 nM; in series [3], 0.44 nM and 0.28 nM; in series [4] (W1L2 suspension cells, read-out: Inhibition of Cell Growth IC50, W1L2 (B)) it was 0.49 ± 0.24 nM; in series [5] (read-out: Inhibition of Cell Growth IC50, W1L2:R865 (D), 72 h growth inhibition assay (Coulter counts)), 13000 ± 4500 nM. In addition, the “lower sensitivity of HT29 cells in vitro” value in series [7] was ~10 fold. Moreover, the MTD at 3 days is ~1.5 mg/kg/day in series [8] and 0.5 to 0.75 mg/kg/day in series [9] (nude, mouse, in vivo, intraperitoneal). In addition, the “Weight loss (up to day 5)” value in series [9] (setting [13]) is on record as “No sig. wt. loss”; in series [9] (setting [14]), 0-19% wt. loss; in series [9] (setting [15]), 9-22% wt. loss. The “Comments: mice killed” value in series [9] (0.75 mg/kg/d i.p. daily x 3 days, d4, 22% wt. loss) is given as “⅓ killed (d4; 22% wt. loss”. Besides, the “O.D. as % control” value in [10] (setting [13]) was determined as 92%; in series [10] (setting [14]), 34%; in series [10] (setting [15]), 29%; in series [11] (CH1 ovarian, 0.25 mg/kg/d i.p. daily x 3 days), 13%; in series [11] (CH1 ovarian, 0.50 mg/kg/d i.p. daily x 3 days) it was 13%; in series [11] (CH1 ovarian, 0.75 mg/kg/d i.p. daily x 3 days), 13%. Further, the “Dose to give 50% inhibition of tumour growth” value in [10] (i.p. daily x 3 days) is 0.4 mg/kg/day; in [11] (CH1 ovarian, i.p. daily x 3 days), <0.25 mg/kg/day. Moreover, the “optical density (% Treated/Control)” value in [11] (CH1 cells in the fibres, all doses given IP (0.25-0.75 mg/kg/day×3 days)) was < 15%.

As to `C#CCN(Cc1cc2c(=O)n(C)c(CN(CC)CC)nc2cc1Cl)c1ccc(C(=O)NCc2cccnc2)cc1` [CB300922, 4-[N-[2-Diethylaminomethyl-7-chloro-3-methyl-4-oxo-3,4-dihydroquinazolin-6-ylmethyl]-N-(prop-2-ynyl)amino]-N-(3-pyridylmethyl)benzamide], the melting point was in the range of 180 to 182 °C. The “Inhibition of L1210 TS (A) IRP* (inverse relative potency)” value in [6] is listed as >2500. Besides, in series [1], the IC50 worked out at 0.73 ± 0.05 nM. Moreover, in series [3] (Homo sapiens), the IC50 was 0.42 nM. Further, the IC50 in [4] (setting [12]) came out at 0.71 ± 0.0076 nM. Moreover, the IC50 in series [5] (Homo sapiens, 72 h, read-out: Inhibition of Cell Growth IC50, W1L2:R865 (D), 72 h growth inhibition assay (Coulter counts)) was > 50000 nM.
